Key:
AurC = molecular target: T1, AurC (Homo sapiens, UniProt Q9UQB9); assay: Kinase panel profiling at 1 µmol/L (mobility shift assay, Carna); format: biochemical; details: 1 µmol/L of BTK inhibitor
T1 construct: purchased Carna Biosciences
T1 sequence (Q9UQB9 1-309): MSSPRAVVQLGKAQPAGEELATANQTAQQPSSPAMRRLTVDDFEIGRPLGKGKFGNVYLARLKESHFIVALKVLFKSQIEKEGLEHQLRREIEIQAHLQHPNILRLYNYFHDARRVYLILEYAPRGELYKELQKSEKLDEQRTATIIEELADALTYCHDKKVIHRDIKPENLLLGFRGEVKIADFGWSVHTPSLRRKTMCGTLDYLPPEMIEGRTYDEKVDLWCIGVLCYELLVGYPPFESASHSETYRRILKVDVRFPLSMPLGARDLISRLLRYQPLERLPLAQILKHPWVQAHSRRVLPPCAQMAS

FGR = molecular target: T2, FGR (Homo sapiens, UniProt P09769); assay: as above; format: biochemical; details: 1 µmol/L of BTK inhibitor
T2 construct: purchased Carna Biosciences

FGFR3 = FGFR3 (Homo sapiens, UniProt P22607); assay: Kinase enzyme activity assay (mobility shift assay, Carna); details: for Percentage inhibition of kinase enzyme activity: FGFR3, 1 µmol/L of BTK inhibitor
ROS = molecular target: T3, ROS (Homo sapiens, UniProt P08922); assay: Kinase panel profiling at 1 µmol/L (mobility shift assay, Carna); format: biochemical; details: 1 µmol/L of BTK inhibitor
T3 construct: purchased Carna Biosciences

BTK = molecular target: T4, BTK (Homo sapiens, UniProt Q06187); assay: Kinase enzyme activity assay (mobility shift assay, Carna); format: biochemical; details: for Percentage inhibition of kinase enzyme activity: BTK, 1 µmol/L of BTK inhibitor
T4 construct: purchased Carna Biosciences, Inc

HIPK3 = molecular target: T5, HIPK3 (Homo sapiens, UniProt Q9H422); assay: Kinase panel profiling at 1 µmol/L (mobility shift assay, Carna); format: biochemical; details: 1 µmol/L of BTK inhibitor
T5 construct: purchased Carna Biosciences

SYK = molecular target: T6, SYK (Homo sapiens, UniProt P43405); assay: as above; format: biochemical; details: 1 µmol/L of BTK inhibitor
T6 construct: purchased Carna Biosciences

MARK4 = molecular target: T7, MARK4 (Homo sapiens, UniProt Q96L34); assay: as above; format: biochemical; details: 1 µmol/L of BTK inhibitor
T7 construct: purchased Carna Biosciences
T7 sequence (Q96L34 1-752): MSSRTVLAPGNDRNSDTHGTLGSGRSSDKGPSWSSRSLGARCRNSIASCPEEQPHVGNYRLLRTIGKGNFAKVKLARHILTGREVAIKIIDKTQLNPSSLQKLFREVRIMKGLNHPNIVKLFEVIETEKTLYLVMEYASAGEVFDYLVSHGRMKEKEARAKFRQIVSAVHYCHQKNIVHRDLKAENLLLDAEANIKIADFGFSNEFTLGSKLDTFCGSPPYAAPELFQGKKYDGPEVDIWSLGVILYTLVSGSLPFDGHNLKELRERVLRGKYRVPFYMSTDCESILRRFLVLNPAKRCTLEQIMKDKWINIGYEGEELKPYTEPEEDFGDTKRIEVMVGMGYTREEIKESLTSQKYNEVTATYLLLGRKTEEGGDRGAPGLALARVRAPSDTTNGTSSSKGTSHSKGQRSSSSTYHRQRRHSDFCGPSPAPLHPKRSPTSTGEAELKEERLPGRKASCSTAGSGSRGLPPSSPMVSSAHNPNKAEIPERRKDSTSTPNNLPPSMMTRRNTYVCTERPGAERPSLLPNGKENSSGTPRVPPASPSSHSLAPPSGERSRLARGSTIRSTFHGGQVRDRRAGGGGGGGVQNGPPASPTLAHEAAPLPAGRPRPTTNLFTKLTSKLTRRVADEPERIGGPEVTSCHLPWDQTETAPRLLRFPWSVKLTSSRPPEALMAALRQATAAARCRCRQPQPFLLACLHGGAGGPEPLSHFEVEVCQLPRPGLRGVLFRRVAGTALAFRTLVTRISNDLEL

CDK7/CycH/MAT1 = molecular target: T8, CDK7/CycH/MAT1 (Homo sapiens, UniProt P50613); assay: as above; format: biochemical; details: 1 µmol/L of BTK inhibitor
T8 construct: purchased Carna Biosciences

MST1 = molecular target: T9, MST1 (Homo sapiens, UniProt Q13043); assay: as above; format: biochemical; details: 1 µmol/L of BTK inhibitor
T9 construct: purchased Carna Biosciences
T9 sequence (Q13043 1-487): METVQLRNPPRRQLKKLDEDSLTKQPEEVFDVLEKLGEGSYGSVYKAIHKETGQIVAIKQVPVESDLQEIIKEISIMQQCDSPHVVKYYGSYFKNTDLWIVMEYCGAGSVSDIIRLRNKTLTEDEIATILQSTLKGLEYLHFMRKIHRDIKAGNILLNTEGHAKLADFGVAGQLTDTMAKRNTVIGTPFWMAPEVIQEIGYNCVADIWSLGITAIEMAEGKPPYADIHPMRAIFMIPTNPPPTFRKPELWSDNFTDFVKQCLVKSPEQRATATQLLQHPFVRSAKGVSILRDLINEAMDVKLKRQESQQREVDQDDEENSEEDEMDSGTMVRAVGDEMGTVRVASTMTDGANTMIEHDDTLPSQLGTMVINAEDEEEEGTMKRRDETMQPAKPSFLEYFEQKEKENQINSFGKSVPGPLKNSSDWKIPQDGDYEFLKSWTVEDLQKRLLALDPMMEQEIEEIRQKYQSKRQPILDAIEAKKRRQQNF

PIM2 = molecular target: T10, PIM2 (Homo sapiens, UniProt Q9P1W9); assay: as above; format: biochemical; details: 1 µmol/L of BTK inhibitor
T10 construct: purchased Carna Biosciences

PIM3 = molecular target: T11, PIM3 (Homo sapiens, UniProt Q86V86); assay: as above; format: biochemical; details: 1 µmol/L of BTK inhibitor
T11 construct: purchased Carna Biosciences

MST2 = molecular target: T12, MST2 (Homo sapiens, UniProt Q13188); assay: as above; format: biochemical; details: 1 µmol/L of BTK inhibitor
T12 construct: purchased Carna Biosciences
T12 sequence (Q13188 1-491): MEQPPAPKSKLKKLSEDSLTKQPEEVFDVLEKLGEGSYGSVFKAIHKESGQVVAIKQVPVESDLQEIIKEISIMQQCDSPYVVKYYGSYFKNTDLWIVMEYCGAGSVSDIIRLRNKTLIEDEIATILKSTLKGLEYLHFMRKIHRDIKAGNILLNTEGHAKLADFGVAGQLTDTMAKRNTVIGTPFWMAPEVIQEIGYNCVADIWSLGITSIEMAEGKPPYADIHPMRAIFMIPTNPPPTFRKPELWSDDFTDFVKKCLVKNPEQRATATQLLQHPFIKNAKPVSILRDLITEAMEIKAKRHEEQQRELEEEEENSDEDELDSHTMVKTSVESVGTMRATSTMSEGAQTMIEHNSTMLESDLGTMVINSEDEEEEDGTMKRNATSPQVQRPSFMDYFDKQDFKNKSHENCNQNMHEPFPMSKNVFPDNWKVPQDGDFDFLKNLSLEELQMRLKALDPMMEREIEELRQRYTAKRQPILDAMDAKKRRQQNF

CDK2/CycE1 = molecular target: T13, CDK2/CycE1 (Homo sapiens, UniProt P24941); assay: as above; format: biochemical; details: 1 µmol/L of BTK inhibitor
T13 construct: purchased Carna Biosciences

T5 sequence (Q9H422 whole entry): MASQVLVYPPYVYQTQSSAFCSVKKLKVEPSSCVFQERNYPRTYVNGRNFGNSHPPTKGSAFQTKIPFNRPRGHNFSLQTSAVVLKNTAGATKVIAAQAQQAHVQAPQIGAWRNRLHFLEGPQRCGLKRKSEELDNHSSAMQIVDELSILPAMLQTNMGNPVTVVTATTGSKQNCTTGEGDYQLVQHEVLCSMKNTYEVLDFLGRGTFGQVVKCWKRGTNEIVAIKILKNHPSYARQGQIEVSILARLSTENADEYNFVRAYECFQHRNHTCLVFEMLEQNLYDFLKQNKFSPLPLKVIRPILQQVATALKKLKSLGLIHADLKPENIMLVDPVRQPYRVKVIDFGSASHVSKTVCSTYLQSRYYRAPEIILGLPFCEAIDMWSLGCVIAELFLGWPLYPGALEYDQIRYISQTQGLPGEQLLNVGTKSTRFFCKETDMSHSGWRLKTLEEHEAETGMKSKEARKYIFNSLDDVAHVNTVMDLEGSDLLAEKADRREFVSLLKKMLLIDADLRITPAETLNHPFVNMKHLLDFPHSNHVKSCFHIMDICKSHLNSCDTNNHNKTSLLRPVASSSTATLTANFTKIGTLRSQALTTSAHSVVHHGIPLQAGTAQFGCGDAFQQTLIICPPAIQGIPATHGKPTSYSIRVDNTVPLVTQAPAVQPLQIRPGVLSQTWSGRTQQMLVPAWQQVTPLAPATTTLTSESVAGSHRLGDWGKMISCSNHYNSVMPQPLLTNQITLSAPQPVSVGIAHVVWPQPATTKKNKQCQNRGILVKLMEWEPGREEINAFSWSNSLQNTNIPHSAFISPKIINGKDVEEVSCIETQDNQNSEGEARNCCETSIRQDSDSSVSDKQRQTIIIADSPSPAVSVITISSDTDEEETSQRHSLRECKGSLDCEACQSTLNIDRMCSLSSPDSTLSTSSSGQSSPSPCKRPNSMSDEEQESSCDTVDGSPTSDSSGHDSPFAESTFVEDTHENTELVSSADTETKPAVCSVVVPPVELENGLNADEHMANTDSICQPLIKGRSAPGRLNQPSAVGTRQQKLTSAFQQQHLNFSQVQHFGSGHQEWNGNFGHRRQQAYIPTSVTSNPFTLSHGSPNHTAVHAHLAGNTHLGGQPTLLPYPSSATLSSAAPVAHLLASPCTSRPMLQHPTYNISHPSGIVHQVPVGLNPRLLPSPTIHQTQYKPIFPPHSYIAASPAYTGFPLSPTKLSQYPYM
T8 sequence (P50613 whole entry): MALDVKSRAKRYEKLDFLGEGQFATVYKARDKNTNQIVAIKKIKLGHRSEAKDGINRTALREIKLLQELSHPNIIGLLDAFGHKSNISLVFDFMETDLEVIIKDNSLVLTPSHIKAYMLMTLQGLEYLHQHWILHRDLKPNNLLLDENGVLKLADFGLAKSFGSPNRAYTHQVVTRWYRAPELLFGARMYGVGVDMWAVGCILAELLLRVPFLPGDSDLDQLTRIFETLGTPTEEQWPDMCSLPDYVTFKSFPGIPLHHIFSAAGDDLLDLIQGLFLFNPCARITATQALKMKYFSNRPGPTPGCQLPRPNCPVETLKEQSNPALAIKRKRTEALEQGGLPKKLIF
T8 sequence (P51946 whole entry partner): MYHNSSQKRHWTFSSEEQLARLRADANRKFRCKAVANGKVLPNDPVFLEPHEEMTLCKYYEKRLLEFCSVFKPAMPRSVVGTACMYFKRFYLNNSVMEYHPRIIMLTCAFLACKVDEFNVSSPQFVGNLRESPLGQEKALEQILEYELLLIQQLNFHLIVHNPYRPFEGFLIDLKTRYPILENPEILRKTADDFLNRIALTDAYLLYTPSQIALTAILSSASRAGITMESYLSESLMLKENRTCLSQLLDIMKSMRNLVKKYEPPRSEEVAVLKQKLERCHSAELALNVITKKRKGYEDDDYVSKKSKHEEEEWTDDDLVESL
T8 sequence (P51948 whole entry partner): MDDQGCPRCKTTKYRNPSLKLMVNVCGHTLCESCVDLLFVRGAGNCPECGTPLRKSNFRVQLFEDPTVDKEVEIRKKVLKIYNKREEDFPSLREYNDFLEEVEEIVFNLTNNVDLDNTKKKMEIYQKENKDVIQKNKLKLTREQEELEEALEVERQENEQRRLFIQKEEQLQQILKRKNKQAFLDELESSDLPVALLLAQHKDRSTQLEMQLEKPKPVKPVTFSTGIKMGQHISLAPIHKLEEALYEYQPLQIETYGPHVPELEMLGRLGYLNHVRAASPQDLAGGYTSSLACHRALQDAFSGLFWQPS
T2 sequence (P09769 whole entry): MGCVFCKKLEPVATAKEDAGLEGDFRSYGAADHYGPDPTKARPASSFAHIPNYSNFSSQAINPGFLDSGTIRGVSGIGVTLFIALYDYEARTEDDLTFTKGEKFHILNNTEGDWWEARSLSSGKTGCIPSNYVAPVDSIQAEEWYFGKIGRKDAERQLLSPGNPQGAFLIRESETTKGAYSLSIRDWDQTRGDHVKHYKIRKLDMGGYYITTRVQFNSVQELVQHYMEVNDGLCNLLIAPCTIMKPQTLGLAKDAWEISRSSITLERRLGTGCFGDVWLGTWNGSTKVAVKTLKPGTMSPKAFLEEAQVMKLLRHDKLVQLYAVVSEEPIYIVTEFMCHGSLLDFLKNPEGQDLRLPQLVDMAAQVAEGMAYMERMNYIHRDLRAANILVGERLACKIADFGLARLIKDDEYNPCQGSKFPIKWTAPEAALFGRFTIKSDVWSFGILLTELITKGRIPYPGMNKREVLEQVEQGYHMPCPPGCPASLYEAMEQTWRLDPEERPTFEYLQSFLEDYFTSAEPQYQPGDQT
T4 sequence (Q06187 whole entry): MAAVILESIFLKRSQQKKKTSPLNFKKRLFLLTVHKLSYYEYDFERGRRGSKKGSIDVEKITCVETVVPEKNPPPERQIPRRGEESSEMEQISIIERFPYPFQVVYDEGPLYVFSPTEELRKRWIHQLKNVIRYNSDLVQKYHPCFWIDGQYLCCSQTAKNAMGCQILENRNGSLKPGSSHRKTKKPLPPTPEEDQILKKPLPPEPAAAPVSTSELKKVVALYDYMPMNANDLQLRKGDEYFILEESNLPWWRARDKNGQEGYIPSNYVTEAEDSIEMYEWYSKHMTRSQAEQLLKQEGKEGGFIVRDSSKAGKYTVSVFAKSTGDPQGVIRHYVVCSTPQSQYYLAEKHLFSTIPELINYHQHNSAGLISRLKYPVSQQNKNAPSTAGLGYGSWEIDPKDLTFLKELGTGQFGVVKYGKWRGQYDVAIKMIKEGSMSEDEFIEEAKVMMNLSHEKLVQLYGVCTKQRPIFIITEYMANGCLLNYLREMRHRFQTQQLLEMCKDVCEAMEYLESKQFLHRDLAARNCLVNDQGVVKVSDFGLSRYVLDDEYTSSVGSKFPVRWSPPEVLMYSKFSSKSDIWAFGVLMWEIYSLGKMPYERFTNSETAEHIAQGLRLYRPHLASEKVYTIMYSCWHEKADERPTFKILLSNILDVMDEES
T10 sequence (Q9P1W9 whole entry): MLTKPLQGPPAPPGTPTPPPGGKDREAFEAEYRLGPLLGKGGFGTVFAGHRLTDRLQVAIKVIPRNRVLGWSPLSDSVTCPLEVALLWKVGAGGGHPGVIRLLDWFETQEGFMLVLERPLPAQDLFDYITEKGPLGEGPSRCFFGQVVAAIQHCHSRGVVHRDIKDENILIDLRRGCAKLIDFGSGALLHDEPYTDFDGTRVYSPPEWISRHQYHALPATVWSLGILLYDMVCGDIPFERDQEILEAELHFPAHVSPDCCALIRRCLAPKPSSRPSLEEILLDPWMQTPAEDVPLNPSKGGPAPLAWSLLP
Sequence of FGFR3 (P22607 23-806): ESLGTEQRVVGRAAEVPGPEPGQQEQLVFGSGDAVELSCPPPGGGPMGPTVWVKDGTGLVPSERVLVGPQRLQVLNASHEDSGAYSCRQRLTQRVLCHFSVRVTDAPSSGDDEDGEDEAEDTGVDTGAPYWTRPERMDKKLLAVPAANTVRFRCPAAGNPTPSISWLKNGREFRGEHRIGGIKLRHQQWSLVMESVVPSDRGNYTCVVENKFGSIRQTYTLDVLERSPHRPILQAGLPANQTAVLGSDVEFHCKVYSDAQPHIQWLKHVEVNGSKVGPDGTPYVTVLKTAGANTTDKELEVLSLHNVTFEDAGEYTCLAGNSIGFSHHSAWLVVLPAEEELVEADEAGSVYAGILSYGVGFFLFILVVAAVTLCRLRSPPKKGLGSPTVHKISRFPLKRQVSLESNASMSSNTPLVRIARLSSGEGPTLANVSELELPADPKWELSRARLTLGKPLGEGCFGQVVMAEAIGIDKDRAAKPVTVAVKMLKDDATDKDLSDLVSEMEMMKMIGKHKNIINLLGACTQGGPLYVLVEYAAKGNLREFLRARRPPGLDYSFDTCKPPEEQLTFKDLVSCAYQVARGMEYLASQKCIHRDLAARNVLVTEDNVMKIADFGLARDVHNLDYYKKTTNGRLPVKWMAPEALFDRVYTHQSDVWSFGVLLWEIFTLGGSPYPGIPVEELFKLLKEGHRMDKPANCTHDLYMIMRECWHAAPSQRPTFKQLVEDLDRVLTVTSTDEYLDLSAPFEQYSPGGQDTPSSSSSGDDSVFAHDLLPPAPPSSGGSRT

Compound	Percentage inhibition of kinase enzyme activity (AurC)	Percentage inhibition of kinase enzyme activity (FGR)	Percentage inhibition of kinase enzyme activity (FGFR3)	Percentage inhibition of kinase enzyme activity (ROS)	Percentage inhibition of kinase enzyme activity (BTK)	Percentage inhibition of kinase enzyme activity (HIPK3)	Percentage inhibition of kinase enzyme activity (SYK)	Percentage inhibition of kinase enzyme activity (MARK4)	Percentage inhibition of kinase enzyme activity (CDK7/CycH/MAT1)	Percentage inhibition of kinase enzyme activity (MST1)	Percentage inhibition of kinase enzyme activity (PIM2)	Percentage inhibition of kinase enzyme activity (PIM3)	Percentage inhibition of kinase enzyme activity (MST2)	Percentage inhibition of kinase enzyme activity (CDK2/CycE1)	IC50 (BTK; K M,bin ATP)	IC50 (FGFR3)
C=CC(=O)N1CCC([C@@H]2CCNc3c(C(N)=O)c(-c4ccc(Oc5ccccc5)cc4)nn32)CC1 [zanubrutinib]	-0.85%	2.22%	6.11%													
CC#CC(=O)N1CCC[C@H]1c1nc(-c2ccc(C(=O)Nc3ccccn3)cc2)c2c(N)nccn12 [acalabrutinib]	7.21%	2.91%	-1.31%	1.79%	94.95%	-12.04%	-19.36%	-15.24%	5.25%	3.91%	-16.50%	-0.0376%	-3.46%	-4.82%		
COc1ccc(F)cc1C(=O)NCc1ccc(-c2nn([C@@H](C)C(F)(F)F)c(N)c2C(N)=O)cc1 [pirtobrutinib]	39.97%	18.17%	1.40%	3.20%	98.09%	3.06%	-13.08%	-2.93%	-4.77%	10.97%	-1.91%	1.44%	6.74%	-41.48%	0.0023 µM	
O=C(c1ccc(Oc2ccccc2)cc1Cl)c1c[nH]c2ncnc(N[C@@H]3CC[C@@H](CO)OC3)c12 [nemtabrutinib]	65.10%	90.23%	86.25%	60.67%	97.07%	5.34%	3.99%	20.90%	-12.60%	96.55%	-5.51%	-5.55%	86.96%	-17.66%		0.0701 µM
C=CC(=O)N1CCC[C@@H](n2nc(-c3ccc(Oc4ccccc4)cc3)c3c(N)ncnc32)C1 [ibrutinib]	6.95%	99.02%	81.85%	4.82%		1.67%	-19.83%	-14.26%	4.94%	4.14%	-5.09%	-0.24%	16.65%	-8.27%		

From PMC12586182 (Frontiers in Oncology, 2025)
